The numbers were not newly measured in patent US8765197B2, “Extract of herbal and composition containing the same” (Dong-A-Pharm, Co., Ltd., priority 2006, dated 2014), which cites them from elsewhere.

This data set relates to functional dyspepsia.

For `COc1cc(N)c(Cl)cc1C(=O)NC1CCN(CCCOc2ccc(F)cc2)CC1OC` (centres unmarked) [cisapride], where the note is “administered for 4 to 8 weeks”, the “cases in which effective” value is “more than 70%”. The response rate (functional dyspepsia, placebo 27-53%) is reported as 50-82%.
